Reference: article PMC4730278, “In Vivo Anti-Tumor Activity and Toxicological Evaluations of Perillaldehyde 8,9-Epoxide, a Derivative of Perillyl Alcohol” (International Journal of Molecular Sciences, 2016)

Experiments:
[1] = tested on: sarcoma 180 tumor cells (S-180); assay: In vivo antitumor activity assay, sarcoma 180 tumor growth in mice; set-up: species or system Swiss mice; details: 7 consecutive days
Method: Sarcoma 180 (S-180) tumor cells, were obtained through at the Federal University of Ceará, Brazil and maintained in the abdominal cavities of Swiss mice in their ascitic form by ten days.
The effect on tumor growth in vivo was assessed using S-180 ascites tumor cells, according standard protocol. Ten-day-old S-180 ascites tumor cells (2 × 10^6 cells per 0.5 mL) were inoculated subcutaneously into the right axillary region of animals. After 24 h, the animals were separated into 5 groups (n = 10 mice/group) and subjected to intraperitoneal (i.p.) treatment for 7 consecutive days (once a day). Group 1 consisted of animals treated by intraperitoneal (i.p.) administration of negative control—5% Dimethyl sulfoxide (DMSO); Group 2 consisted of animals treated by i.p. administration of positive control—5-fluorouracil 25 mg/kg/day (5-FU; purity > 99%; Sigma Chemical Co., St. Louis, MO, USA); Group 3 consisted of animals treated by i.p. administration of perillaldehyde 8,9-epoxide at 100 mg/kg/day; Group 4 consisted of animals treated by i.p. administration of perillaldehyde 8,9-epoxide at 200 mg/kg/day; Group 5 consisted of animals treated by i.p. administration of perillyl alcohol at 100 mg/kg/day; Group 6 consisted of animals treated by i.p. administration of perillyl alcohol at 200 mg/kg/day. At 24 h from the last day of treatment, under 1.5% isoflurane inhalation anesthesia, the mice were euthanized, and the tumors were weighed. The inhibition ratio of tumor growth (%) was calculated by the following equation: (%) = [(NC − TG)/NC] × 100, where NC is the average tumor weight of the negative control group and TG is the average tumor weight of the treated group.

[2] = Hematological parameters in blood, mice with S-180 tumor; type: in vivo, Swiss mice; details: 7 days; for Differential Count of Leukocytes, Eosinophil / Differential Count of Leukocytes, Lymphocyte / Differential Count of Leukocytes, Monocyte / Differential Count of Leukocytes, Neutrophil / Total Leukocytes: mice with S-180 tumor
Method: (§1) Body weights (n = 10 mice/group) were determined at the first and last days of treatment. Organ weight alterations (n = 10 mice/group), and hematological and biochemical analysis (n = 5 mice/group) were performed on the last day of experimentation. All systemic toxicological analyses were also performed with 4 healthy animal groups, without the inoculation of S-180, (n = 5 mice/group) treated with 5% DMSO (i.p.), 5-FU 25 mg/Kg/day (i.p.), perillaldehyde 8,9-epoxide 100 mg/kg/day (i.p.) and perillaldehyde 8,9-epoxide 200 mg/kg/day for consecutive 7 days.
(§2) Twenty four hours after the seventh treatment day, blood samples of the animals were collected (retro-orbital plexus) with anesthetized mice (1.5%, isoflurane). Immediately after blood collection the animals were euthanized, and their organs (liver, spleen and kidneys) were removed and weighed. The wet mass of each organ was expressed as grams per 100 grams of body mass and compared to the negative control group.
(§3) For hematological analyses, an aliquot of blood from each animal was placed in ethylene diamine tetracetic acid (EDTA). Hematological parameters, including the total as well as differential counts of leukocytes, including eosinophils, lymphocytes, neutrophils and monocytes determined by standard manual procedures using optical light microscopy.

[3] = Hematological parameters in blood, healthy mice; type: in vivo, Swiss mice; details: 7 days
Method: as §1, §2, §3

[4] = Body and organ weights, mice transplanted with S-180 tumor cells; type: in vivo, Swiss mice; details: 7 days
Method: as §1, §2

[5] = Histopathological and macroscopic analyses of livers, kidneys and spleens; type: in vivo, Swiss mice
Method: After being weighed and fixed in 10% formaldehyde; tumors, livers, spleens, and kidneys were submitted for assessment macroscopic (size, coloration and hemorrhage), were cut into small pieces and, after that dehydrated in alcohol, diaphanized in xylene and paraffin-embedded. Subsequently, 5-µm-thick histological sections were obtained and stained with hematoxylin and eosin. Histological analyses were performed by light microscopy in order to assess possible damage caused by treatment.

[6] = Biochemical parameters in blood, healthy mice; type: in vivo, Swiss mice; details: 7 days
Method: as §1, §2
(§4) For evaluation of the effect of perillaldehyde 8,9-epoxide on the biochemical parameters aspartate aminotransferase (AST) and alanine aminotransferase (ALT) enzymatic to investigate liver function alterations, creatinine and urea were measured as renal function parameters. For this test, blood samples of the animals were collected without anticoagulant, centrifuged for 10 min at 3500 rpm and 25 °C to obtain […].
(§5) The Clinical Chemistry® kits (Abbott Architect; C8000; Abbott Laboratories, Wiesbaden, Germany) were used for biochemical evaluation of serum samples.

[7] = tested on: 4 cancer cell lines (colon carcinoma, ovarian adenocarcinoma, glioblastoma, and leukemia); set-up: method as in PMID 26197313; details: all of the 4 cell lines studied; cited from earlier work
[8] = Body and organ weights, healthy mice; type: in vivo, Swiss mice; details: 7 days
Method: as §1, §2

[9] = tested on: three human tumor cell lines (ovarian adenocarcinoma, colon carcinoma, glioblastoma); set-up: method as in PMID 26197313; details: in vitro; cited from earlier work
[10] = Biochemical parameters in blood, mice with S-180 tumor cells; type: in vivo, Swiss mice; details: 7 days; for ALT / AST / Creatinine / Urea: mice with S-180 tumor cells
Method: as §1, §2, §4, §5

[11] = mice with tumor S-180, 100 mg/kg/day i.p.
[12] = mice with tumor S-180, 200 mg/kg/day i.p.
[13] = mice with tumor S-180, 25 mg/kg/day i.p.

Q: Which “tumor growth inhibition rate” value ([1]; 100 mg/kg/day i.p.) does the source give for `C=C(C)[C@@H]1CC=C(CO)CC1` [perillyl alcohol, (S)-(−)-perillyl alcohol] here?
A: 35.3%

Q: What about the “tumor growth inhibition rate” value ([1]; 200 mg/kg/day i.p.) of the same molecule?
A: 45.4%

Q: What does the source list for `CC1([C@@H]2CC=C(C=O)CC2)CO1` (stereo partly shown) [perillaldehyde 8,9-epoxide]?
A: effect on total leukocyte count (in words) ([2]; healthy mice and mice with S-180, at the doses tested (100 and 200 mg/kg/day i.p.)): caused leukopenia; Differential Count of Leukocytes, Eosinophil ([2]; 100 mg/kg/day i.p.): 0%; Differential Count of Leukocytes, Lymphocyte ([2]; 100 mg/kg/day i.p.): 73.2 ± 2.17 %; Differential Count of Leukocytes, Monocyte ([2]; 100 mg/kg/day i.p.): 0.6 ± 0.40%; Differential Count of Leukocytes, Neutrophil ([2]; 100 mg/kg/day i.p.): 26.2 ± 5.92 %; Total Leukocytes ([2]; 100 mg/kg/day i.p.): 5.30 ± 0.37 ^# 10^3 Cells/µL; Differential Count of Leukocytes, Eosinophil ([2]; 200 mg/kg/day i.p.): 0%; Differential Count of Leukocytes, Lymphocyte ([2]; 200 mg/kg/day i.p.): 80.6 ± 2.54 %; Differential Count of Leukocytes, Monocyte ([2]; 200 mg/kg/day i.p.): 0.8 ± 0.34%; Differential Count of Leukocytes, Neutrophil ([2]; 200 mg/kg/day i.p.): 18.6 ± 6.18 %; Total Leukocytes ([2]; 200 mg/kg/day i.p.): 6.50 ± 0.65 ^# 10^3 Cells/µL; Differential Count of Leukocytes, Eosinophil ([3]; 100 mg/kg/day i.p.): 0%; Differential Count of Leukocytes, Lymphocyte ([3]; 100 mg/kg/day i.p.): 86.0 ± 1.68 %; Differential Count of Leukocytes, Monocyte ([3]; 100 mg/kg/day i.p.): 1.5 ± 0.86%; Differential Count of Leukocytes, Neutrophil ([3]; 100 mg/kg/day i.p.): 12.5 ± 1.08 %; Total Leukocytes ([3]; 100 mg/kg/day i.p.): 3.12 ± 0.38 * 10^3 Cells/µL; Differential Count of Leukocytes, Eosinophil ([3]; 200 mg/kg/day i.p.): 0%; Differential Count of Leukocytes, Lymphocyte ([3]; 200 mg/kg/day i.p.): 89.5 ± 0.65 %; Differential Count of Leukocytes, Monocyte ([3]; 200 mg/kg/day i.p.): 1.3 ± 0.25%; Differential Count of Leukocytes, Neutrophil ([3]; 200 mg/kg/day i.p.): 9.2 ± 0.85 %; Total Leukocytes ([3]; 200 mg/kg/day i.p.): 2.62 ± 0.47 * 10^3 Cells/µL; changes in body or organ masses (in words) ([4]; healthy and S-180 mice, 100 and 200 mg/kg/day i.p.): did not cause changes in body or organ masses; Kidney [4, 11]: 1.27 ± 0.03 g/100 g Body Mass; Liver [4, 11]: 4.84 ± 0.07 g/100 g Body Mass; Spleen [4, 11]: 0.52 ± 0.02 g/100 g Body Mass; Variation Body in Mass [4, 11]: 1.11 ± 0.19 g; Kidney [4, 12]: 1.28 ± 0.03 g/100 g Body Mass; Liver [4, 12]: 4.57 ± 0.09 g/100 g Body Mass; Spleen [4, 12]: 0.49 ± 0.04 g/100 g Body Mass; Variation Body in Mass [4, 12]: -1.58 ± 0.33 g; Histopathological analyses of the liver, spleen, and kidneys (morphology) ([5]; light microscopy, hematoxylin-eosin, after 7 days i.p. treatment): free from any morphological changes; ALT ([6]; 100 mg/kg/day i.p.): 55.25 ± 6.26 U/L; AST ([6]; 100 mg/kg/day i.p.): 100.5 ± 5.97 U/L; Creatinine ([6]; 100 mg/kg/day i.p.): 0.34 ± 0.01 mg/dL; Urea ([6]; 100 mg/kg/day i.p.): 54.25 ± 3.82 mg/dL; ALT ([6]; 200 mg/kg/day i.p.): 47.75 ± 4.64 U/L; AST ([6]; 200 mg/kg/day i.p.): 78.75 ± 3.17 U/L; Creatinine ([6]; 200 mg/kg/day i.p.): 0.34 ± 0.01 mg/dL; Urea ([6]; 200 mg/kg/day i.p.): 41.00 ± 4.42 mg/dL; IC50 (median inhibitory concentration able to induce 50% of maximal effect) [7]: less than 4.0 µg/mL; Kidney ([8]; 100 mg/kg/day i.p.): 1.15 ± 0.06 g/100 g Body Mass; Liver ([8]; 100 mg/kg/day i.p.): 4.66 ± 0.09 g/100 g Body Mass; Spleen ([8]; 100 mg/kg/day i.p.): 0.25 ± 0.01 g/100 g Body Mass; Variation Body in Mass ([8]; 100 mg/kg/day i.p.): 0.90 ± 0.38 g; Kidney ([8]; 200 mg/kg/day i.p.): 1.17 ± 0.19 g/100 g Body Mass; Liver ([8]; 200 mg/kg/day i.p.): 5.07 ± 0.13 g/100 g Body Mass; Spleen ([8]; 200 mg/kg/day i.p.): 0.37 ± 0.06 g/100 g Body Mass; Variation Body in Mass ([8]; 200 mg/kg/day i.p.): -0.71 ± 0.53 g; inhibition percentage (GI%) compared with perillyl alcohol [9]: higher inhibition percentage in all cell lines tested; changes in hepatic and renal parameters (AST, ALT, urea, creatinine; in words) ([10]; healthy and S-180 mice, at the doses tested (100 and 200 mg/kg/day i.p.)): does not cause changes in hepatic and renal parameters; ALT ([10]; 100 mg/kg/day i.p.): 35.0 ± 2.2 U/L; AST ([10]; 100 mg/kg/day i.p.): 178.0 ± 5.0 U/L; Creatinine ([10]; 100 mg/kg/day i.p.): 0.34 ± 0.01 mg/dL; Urea ([10]; 100 mg/kg/day i.p.): 43.0 ± 1.08 mg/dL; ALT ([10]; 200 mg/kg/day i.p.): 36.0 ± 3.5 U/L; AST ([10]; 200 mg/kg/day i.p.): 208.3 ± 20.6 U/L; Creatinine ([10]; 200 mg/kg/day i.p.): 0.33 ± 0.02 mg/dL; Urea ([10]; 200 mg/kg/day i.p.): 47.80 ± 2.01 mg/dL; tumor growth inhibition rate ([1]; 100 mg/kg/day i.p.): 38.4%; tumor growth inhibition rate ([1]; 200 mg/kg/day i.p.): 58.7%

Q: Which results are given for `O=c1[nH]cc(F)c(=O)[nH]1` [5-FU, 5-fluorouracil, reference compound]?
A: Differential Count of Leukocytes, Eosinophil ([2]; 25 mg/kg/day i.p.): 0%; Differential Count of Leukocytes, Lymphocyte ([2]; 25 mg/kg/day i.p.): 89.0 ± 0.70 %; Differential Count of Leukocytes, Monocyte ([2]; 25 mg/kg/day i.p.): 0.8 ± 0.37%; Differential Count of Leukocytes, Neutrophil ([2]; 25 mg/kg/day i.p.): 10.2 ± 0.54 %; Total Leukocytes ([2]; 25 mg/kg/day i.p.): 2.50 ± 0.32 ^# 10^3 Cells/µL; Differential Count of Leukocytes, Eosinophil ([3]; 25 mg/kg/day i.p.): 0%; Differential Count of Leukocytes, Lymphocyte ([3]; 25 mg/kg/day i.p.): 95.8 ± 0.70 %; Differential Count of Leukocytes, Monocyte ([3]; 25 mg/kg/day i.p.): 1.2 ± 0.70%; Differential Count of Leukocytes, Neutrophil ([3]; 25 mg/kg/day i.p.): 3.0 ± 0.70 %; Total Leukocytes ([3]; 25 mg/kg/day i.p.): 2.37 ± 0.77 * 10^3 Cells/µL; Kidney [4, 13]: 1.15 ± 0.04 g/100 g Body Mass; Liver [4, 13]: 4.99 ± 0.16 g/100 g Body Mass; Spleen [4, 13]: 0.33 ± 0.02 g/100 g Body Mass; Variation Body in Mass [4, 13]: -4.46 ± 0.83 g; macroscopic observation of the spleens ([5]; 25 mg/kg/day i.p., 7 days): Visible atrophy; ALT ([6]; 25 mg/kg/day i.p.): 47.25 ± 2.8 U/L; AST ([6]; 25 mg/kg/day i.p.): 102.0 ± 15.06 U/L; Creatinine ([6]; 25 mg/kg/day i.p.): 0.37 ± 0.02 mg/dL; Urea ([6]; 25 mg/kg/day i.p.): 49.00 ± 5.86 mg/dL; Kidney ([8]; 25 mg/kg/day i.p.): 1.13 ± 0.03 g/100 g Body Mass; Liver ([8]; 25 mg/kg/day i.p.): 4.65 ± 0.21 g/100 g Body Mass; Spleen ([8]; 25 mg/kg/day i.p.): 0.19 ± 0.02 g/100 g Body Mass; Variation Body in Mass ([8]; 25 mg/kg/day i.p.): -3.50 ± 0.66 g; ALT ([10]; 25 mg/kg/day i.p.): 42.8 ± 0.6 U/L; AST ([10]; 25 mg/kg/day i.p.): 164.4 ± 10.0 U/L; Creatinine ([10]; 25 mg/kg/day i.p.): 0.28 ± 0.09 mg/dL; Urea ([10]; 25 mg/kg/day i.p.): 50.71 ± 2.18 mg/dL; tumor growth inhibition rate ([1]; 25 mg/kg/day i.p.): 68.1%; mean tumor mass ([1]; 25 mg/kg/day i.p., 24 h after last treatment, NC 1.18 ± 0.07 g): 0.36 ± 0.02 g
